Data published in patent publication US12344610B2, “APOL1 inhibitors and methods of use” (Maze Therapeutics, Inc., priority 2022, dated 2025).
pEC50: −log10 of the molar value.

Experiments:
[1] = system: HEK293 clonal cell line overexpressing APOL1 G1; test: APOL1 G1 HEK293 cell rescue assay (Example B3); type: cell-based; conditions: geometric mean of at least 2 runs, † = single run, ¥ = concentration at 50% rescue estimated (no sigmoidal curve)
Experimental: Compounds were also assayed in a HEK293 clonal cell line overexpressing APOL1 G1 by a method similar to that shown in Example B2 above.
Unless otherwise specified, EC50 values are reported as the geometric mean of at least 2 assay runs on separate days. Each run represents the average of a technical replicate, where each compound was assayed twice in the same plate. A superscript † symbol indicates a value from the average of a technical replicate from a single assay run, where each compound was assayed twice in the same plate. A ¥ symbol represents compound concentration at 50% rescue estimated due to lack of sigmoidal curve preventing curve fitting. Compounds in Table 41 are referred to by the corresponding Compound Number in Table 1, which is also referred to in the synthetic examples. When one or more of the numbered compounds are identified by stereochemistry (for example, (R)- or (S)-), the specific stereoisomer for which data is provided in Table 41 may be identified by the elution order of such compound as described in the synthetic examples. Absolute stereochemistry of such compounds may be identified by methods known in the art. For Table 41 below, n/a represents “not available”.
Rescue EC50 values reported in Table 41 below represent the half-maximal effective concentration for reversal of cell death caused by overexpression of APOL1.

[2] = system: HEK293 cells overexpressing APOL1 G2; test: APOL1 G2 HEK293 cell rescue assay (reversal of cell death caused by overexpression of APOL1); type: cell-based; conditions: geometric mean of at least 2 assay runs, † = single assay run
Experimental: Unless otherwise specified, EC50 values are reported as the geometric mean of at least 2 assay runs on separate days. Each run represents the average of a technical replicate, where each compound was assayed twice in the same plate. A superscript t symbol indicates a value from the average of a technical replicate from a single assay run, where each compound was assayed twice in the same plate. Compounds in Table 40 are referred to by the corresponding Compound Number in Table 1, which is also referred to in the synthetic examples. When one or more of the numbered compounds are identified by stereochemistry (for example, (R)- or (S)-), the specific stereoisomer for which data is provided in Table 40 may be identified by the elution order of such compound as described in the synthetic examples. Absolute stereochemistry of such compounds may be identified by methods known in the art. For Table 40 below, n/a represents “not available”.
Rescue EC50 values reported in Table 40 below represent the half-maximal effective concentration for reversal of cell death caused by overexpression of APOL1.

[3] = Homo sapiens, HEK293, HEK293 clonal line overexpressing APOL1 G1
[4] = Homo sapiens, HEK293, HEK293 overexpressing APOL1 G2
[5] = HEK293 clonal line overexpressing APOL1 G1

Compound	pEC50 [1, 3]	pEC50 [2, 4]	pEC50 [1, 5]	pEC50 ([2]; HEK293 overexpressing APOL1 G2)
CP(C)(=O)C1(c2ncc(OCCN3CCC4(CC3)C(=O)Nc3ccc(Cl)cc34)cn2)CC1 [Compound 344, 5-chloro-1′-[2-({2-[1-(dimethylphosphoryl)cyclopropyl]pyrimidin-5-yl}oxy)ethyl]-1,2-dihydrospiro[indole-3,4′-piperidin]-2-one]	6.60	6.71	–	–
O=C1CCc2cc(OCCN3CCC4(CC3)C(=O)Nc3ccc(Cl)cc34)cnc2N1 [Compound 293, 5-chloro-1′-{2-[(7-oxo-5,6,7,8-tetrahydro-1,8-naphthyridin-3-yl)oxy]ethyl}-1,2-dihydrospiro[indole-3,4′-piperidin]-2-one]	6.71	6.53	–	–
C[C@]1(O)C[C@H](n2ncc3cc(OCCN4CCC5(CC4)C(=O)Nc4ccc(C#N)cc45)cnc32)C1 [Compound 438, 2-oxo-1′-[2-({1-[(trans)-3-hydroxy-3-methylcyclobutyl]-1H-pyrazolo[3,4-b]pyridin-5-yl}oxy)ethyl]-1,2-dihydrospiro[indole-3,4′-piperidine]-5-carbonitrile]	6.62	6.69	–	–
CC(O)c1ncc(OCCN2CCC3(CC2)C(=O)Nc2ccc(Cl)cc23)cc1C(F)(F)F (stereo not shown) [Compound 399, 5-chloro-1′-(2-{[6-(1-hydroxyethyl)-5-(trifluoromethyl)pyridin-3-yl]oxy}ethyl)-1,2-dihydrospiro[indole-3,4′-piperidin]-2-one]	6.93	7.30	–	–
CS(=O)(=O)C1(c2ccc(OCCN3CCC4(CC3)C(=O)Nc3ccc(C(F)F)cc34)cc2)CC(O)C1 (stereo not shown) [Compound 280, 5-(difluoromethyl)-1′-{2-[4-(3-hydroxy-1-methanesulfonylcyclobutyl)phenoxy]ethyl}-1,2-dihydrospiro[indole-3,4′-piperidin]-2-one]	6.63	7.10	–	–
O=C1CCc2cc(OCCN3CCC4(CC3)C(=O)Nc3ccc(C(F)F)cc34)cnc2N1C1CC(CO)C1 (single isomer, unassigned) [Compound 310, 5-(difluoromethyl)-1′-[2-({7-oxo-8-[(trans) or (cis)-3-(hydroxymethyl)cyclobutyl]-5,6,7,8-tetrahydro-1,8-naphthyridin-3-yl}oxy)ethyl]-1,2-dihydrospiro[indole-3,4′-piperidin]-2-one]	–	–	6.57	6.99
CC(CO)(c1ncc(OCCN2CCC3(CC2)C(=O)Nc2ccc(Cl)cc23)cc1C(F)(F)F)S(C)(=O)=O (single isomer, unassigned) [Compound 403, 5-chloro-1′-[2-({6-[(2R or 2S)-1-hydroxy-2-methanesulfonylpropan-2-yl]-5-(trifluoromethyl)pyridin-3-yl}oxy)ethyl]-1,2-dihydrospiro[indole-3,4′-piperidin]-2-one]	–	–	6.84	7.02
CN1C(=O)C2(CCN(CCOc3ccc(C4(S(C)(=O)=O)CC(O)C4)cc3)CC2)c2cc(C(F)F)ccc21 (stereo not shown) [Compound 277, 5-(difluoromethyl)-1′-{2-[4-(3-hydroxy-1-methanesulfonylcyclobutyl)phenoxy]ethyl}-1-methyl-1,2-dihydrospiro[indole-3,4′-piperidin]-2-one]	6.93	7.47	–	–
CC(COc1ccc(S(C)(=O)=O)cc1)N1CCC2(CC1)C(=O)N(C1CC(O)C1)c1ccc(Cl)cc12 (single isomer, unassigned) [Compound 207, 5-chloro-1′-[(2S) or (2R)-1-(4-methanesulfonylphenoxy)propan-2-yl]-1-[(trans) or (cis)-3-hydroxycyclobutyl]-1,2-dihydrospiro[indole-3,4′-piperidin]-2-one]	–	–	< 5.00	< 5.00
CC1(O)CC(c2ncc(OCCN3CCC4(CC3)C(=O)Nc3ccc(Cl)cc34)cn2)C1 (stereo not shown) [Compound 373, 5-chloro-1′-(2-{[2-(3-hydroxy-3-methylcyclobutyl)pyrimidin-5-yl]oxy}ethyl)-1,2-dihydrospiro[indole-3,4′-piperidin]-2-one]	6.88	7.27	–	–
O=C1CCc2cc(OCCN3CCC4(CC3)C(=O)Nc3ccc(Cl)cc34)cnc2N1C1CC(O)(C2CC2)C1 (stereo not shown) [Compound 299, 5-chloro-1′-(2-{[8-(3-cyclopropyl-3-hydroxycyclobutyl)-7-oxo-5,6,7,8-tetrahydro-1,8-naphthyridin-3-yl]oxy}ethyl)-1,2-dihydrospiro[indole-3,4′-piperidin]-2-one]	7.20	7.67	–	–
C[C@]1(O)C[C@@H](N2C(=O)CCc3cc(OCCN4CCC5(CC4)C(=O)Nc4c(Cl)cc(Cl)cc45)cnc32)C1 [Compound 409, 5,7-dichloro-1′-[2-({7-oxo-8-[(cis)-3-hydroxy-3-methylcyclobutyl]-5,6,7,8-tetrahydro-1,8-naphthyridin-3-yl}oxy)ethyl]-1,2-dihydrospiro[indole-3,4′-piperidin]-2-one]	6.87	7.15	–	–
O=C1Nc2ccc(Cl)cc2C12CCN(CCOc1cnc(C(O)CO)nc1)CC2 (stereo not shown) [Compound 330, 5-chloro-1′-(2-{[2-(1,2-dihydroxyethyl)pyrimidin-5-yl]oxy}ethyl)-1,2-dihydrospiro[indole-3,4′-piperidin]-2-one]	~5.82	6.18	–	–
C[C@]1(O)C[C@@H](n2c(=O)[nH]c3cc(OCCN4CCC5(CC4)C(=O)Nc4ccc(Cl)cc45)cnc32)C1 [Compound 374, 5-chloro-1′-[2-({2-oxo-3-[(cis)-3-hydroxy-3-methylcyclobutyl]-1H,2H,3H-imidazo[4,5-b]pyridin-6-yl}oxy)ethyl]-1,2-dihydrospiro[indole-3,4′-piperidin]-2-one]	6.67	7.00	–	–
